Measured values reported in patent publication US20240173333A1, “Treating Alagille Syndrome (ALGS)” (priority 2022, published 2024).
Marks after values point to notes of the source that are not given here.

Experiments:
[1] = test system: patients with Alagille syndrome (ALGS); test: ASSERT-EXT open-label extension: ObsRO pruritus response; assay type: in vivo, human; conditions: placebo-odevixibat group; weeks 9-12 of ASSERT-EXT; 120 μg/kg/day
Method: ASSERT-EXT is a Phase 3, multi-center, open-label extension study designed to evaluate the long-term safety and efficacy of 120 μg/kg/day odevixibat in relieving pruritus in patients with ALGS. Patients who participated in the ASSERT trial (see Example 1) and met eligibility criteria for the ASSERT trial were eligible to participate. The duration of the treatment period is 72 weeks, followed by a 4-week Safety Follow-up Period. Clinic visits occur every 4 to 12 weeks. […]
Day 1 coincided with Week 24 in the ASSERT trial; however, if this was not possible due to logistic issues, patients enrolled in the ASSERT-EXT trial within 28 days of completion of the ASSERT trial. […] Two groups were analyzed up to an interim cut-off date of Sep. […]
Outcomes evaluated include pruritus, serum BAs, sleep, and treatment-emergent adverse events (TEAEs). The Primary Efficacy Endpoint is the change from baseline in scratching through Week 72 as measured by the Albireo ObsRO caregiver instrument.
Itching, Scratching, and Sleep Score. Itching, observed scratching, and sleep disturbance were recorded twice each day via eDiary. […] When logistically feasible, the same parent or caregiver recorded in the eDiary, and changes to the parent or caregiver who is performing the recording should be minimized. […] The caregiver recording in the eDiary was recorded. […]

[2] = test system: patients with Alagille syndrome (ALGS); test: ASSERT pruritus responders: caregiver-reported PedsQL
Description: (§1) Treatment with concomitant medications for pruritus was permitted provided the patient was on a stable dosage for ≥4 weeks prior to enrollment that was maintained throughout the study.
(§2) Pruritus responders were defined as patients having a ≥1-point decrease in ObsRO scratching score from baseline to weeks 21-24).

[3] = test system: patients with Alagille syndrome (ALGS); test: ASSERT-EXT open-label extension: safety, TEAEs; assay type: in vivo, human
Method: ASSERT-EXT is a Phase 3, multi-center, open-label extension study designed to evaluate the long-term safety and efficacy of 120 μg/kg/day odevixibat in relieving pruritus in patients with ALGS. Patients who participated in the ASSERT trial (see Example 1) and met eligibility criteria for the ASSERT trial were eligible to participate. The duration of the treatment period is 72 weeks, followed by a 4-week Safety Follow-up Period. Clinic visits occur every 4 to 12 weeks. Patients who wish to continue receiving odevixibat after 72 weeks will have the opportunity to remain on treatment in an optional extension period with visits every 16 weeks until the drug is commercially available, provided continued use is supported by the risk-benefit profile, the patient has not been previously withdrawn or discontinued from the study, and the study is not terminated by the Sponsor. The 4-week Safety Follow-up Period will not occur for those who remain on treatment in the optional extension period.
Day 1 coincided with Week 24 in the ASSERT trial; however, if this was not possible due to logistic issues, patients enrolled in the ASSERT-EXT trial within 28 days of completion of the ASSERT trial. All patients in the ASSERT-EXT trial receive odevixibat 120 μg/kg/day. Two groups were analyzed up to an interim cut-off date of Sep. 9, 2022: treatment-naïve patients who received placebo in ASSERT (i.e., “placebo-odevixibat”) and patients who received odevixibat in ASSERT (i.e., “odevixibat-odevixibat”).
Safety Analysis. The primary safety analysis for this study included the incidence of total treatment emergent AEs (TEAEs) and TEAEs categorized by causality, severity, and seriousness assessments made by the investigator. Trends in safety were also evaluated for the following assessments: Physical examinations; Concomitant medications; Vital signs; Laboratory test results (including clinical chemistry, hematology, urinalysis, AFP, vitamins A, E, and 25-hydroxy vitamin D, and INR); Liver ultrasound and elastography (where available); and Discontinuations due to Aes.

[4] = test system: patients with Alagille syndrome (ALGS); test: ASSERT pruritus responders: serum bile acids
Description: as §1, §2

[5] = test system: patients with Alagille syndrome (ALGS); test: ASSERT: PedsQL total and domain scores; assay type: in vivo, human
Description: […] Additional secondary efficacy endpoints were as follows: • Change from baseline in pruritus to Month 6 (Weeks 21 to 24) as measured by the Albireo PRO instrument. • Percentage of patients achieving a clinically meaningful decrease in pruritus (pruritis responders) as measured by the ObsRO/PRO instruments. • Change from baseline through Week 24 in patient reported and observer reported itching and scratching severity scores, respectively, for the morning assessment and for the evening assessment; sleep parameters as measured with the Albireo ObsRO/PRO instruments (e.g., tiredness and number of awakenings); and PedsQL subdomain scores. • Assessment of Global Symptom Relief to from baseline to Weeks 4, 12, and 24 as measured by patient, caregiver, and clinician Global Impression of Symptoms GIS (PGIS, CaGIS, CGIS) items. • Change from baseline to Week 24 in xanthomatosis as assessed by the Clinician Xanthoma Scale; serum bile acid levels; serum ALT concentration; and serum AST concentration; gamma-glutamyl transferase concentration; total bilirubin concentration. • Change from baseline in biochemical markers and measures of bile acid synthesis (autotaxin, p-C4, only in patients >10 kg); and total cholesterol concentration.
Scores range from 0 and 100, with higher scores indicating better functioning. *n=28 for LS mean change from baseline to week 24. ^†Analysis of change from baseline with odevixibat vs placebo based on ANCOVA model at each visit with baseline score as a covariate and treatment group and age category (<5 years, 5-7 years, 8-12 years, 13-18 years) as fixed effects. ANCOVA=analysis of covariance. LS=least squares. PedsQL=Paediatric Quality of Life Inventory.

## CCCCC1(CCCC)CN(c2ccccc2)c2cc(SC)c(OCC(=O)N[C@@H](C(=O)N[C@@H](CC)C(=O)O)c3ccc(O)cc3)cc2S(=O)(=O)N1 [odevixibat, 1,1-dioxo-3,3-dibutyl-5-phenyl-7-methylthio-8-(N-{(R)-α-[N-((S)-1-carboxypropyl)carbamoyl]-4-hydroxybenzyl}carbamoylmethoxy)-2,3,4,5-tetrahydro-1,2,5-benzothiadiazepine]
[1]
  patients achieving a pruritus reduction ≥1-point from baseline: 70%
[2]; n=24, range 0-100
  PedsQL total score, Baseline Mean (SE): 68 (3)
[2]; to week 24, n=23
  PedsQL total score, Mean (SE) Change From Baseline: 16 (4)^c
[2]; week 24, n=25
  PedsQL total score, Week 24 Mean (SE): 83 (2)
[3]; 2/49 patients, interim cut-off
  Serious TEAEs: 4%
[3]; interim cut-off
  drug-related serious TEAEs or TEAEs leading to discontinuation or dose reduction: No drug-related serious TEAEs or TEAEs leading to discontinuation or dose reduction
[3]; n=49, interim cut-off
  incidence of drug-related diarrhea: 4%
  incidence of treatment-emergent diarrhea: 16%
[3]; treatment for ≥24 weeks
  tolerability: well tolerated
[4]; average of weeks 20 and 24, n=28
  Bile acids, Week 24 Mean (SE): 136 (19) μmol/L
[4]; baseline to average of weeks 20 and 24
  Bile acids, Mean (SE) Change From Baseline: −107 (23) μmol/L
[4]; n=28
  Bile acids, Baseline Mean (SE): 243 µmol/L
[4]; n=28, listed as Odevixibat
  Bile acids, Baseline Mean (SE): 243 (23) μmol/L
[5]; baseline, n=30
  PedsQL Emotional Functioning, Mean (SD) at baseline: 55.8 (17.8)
  PedsQL Physical Functioning, Mean (SD) at baseline: 71.6 (21.4)
  PedsQL School Functioning, Mean (SD) at baseline: 63.3 (22.9)
  PedsQL Social Functioning, Mean (SD) at baseline: 78.5 (18.8)
[5]; baseline, n=30, score 0-100
  PedsQL Total Score, Mean (SD) at baseline: 67.8 (16.3)
[5]; n=28
  PedsQL Emotional Functioning, LS mean (SE) change from baseline to week 24: 21.0 (3.3)
  PedsQL Physical Functioning, LS mean (SE) change from baseline to week 24: 14.2 (2.9)
  PedsQL School Functioning, LS mean (SE) change from baseline to week 24: 13.3 (3.0)
  PedsQL Social Functioning, LS mean (SE) change from baseline to week 24: 5.1 (3.2)
[5]; n=28, score 0-100
  PedsQL Total Score, LS mean (SE) change from baseline to week 24: 13.5 (2.5)
